In US11505556B2, “Halogenated derivatives of morphinans and uses thereof” (Xalud Therapeutics, Inc., priority 2017, dated 2022):

How the values were obtained:
[1] = test system: CCI neuropathic pain (mechanical allodynia); test: Rat chronic constriction injury (CCI) neuropathic pain model, SC dosing, von Frey testing (Example 1); format: in vivo
Description: Pathogen-free adult male Sprague-Dawley rats (300-375 g; Harlan Labs, Madison, Wis.) were used in all experiments. Rats were housed in temperature (23+/−3° C.) and light (12 hour:12 hour, light:dark cycle; lights on at 0700) controlled rooms with standard rodent chow and water available ad libitum.
Chronic Constriction Injury (CCI) model: Neuropathic pain was induced using the CCI model of partial sciatic nerve injury (see, e.g., Bennett and Xie, […]). CCI was performed at the mid-thigh level of the left hindleg as previously described in Milligan, et al., Eur. J. Neuroscience, 20:2294-2302 (2004). In brief, four sterile chromic gut sutures (cuticular 4-0 chromic gut, FS-2; Ethicon, Somerville, N.J., USA) were loosely tied around the gently isolated sciatic nerve. Drug testing was delayed until 10-14 days after surgery to ensure that neuropathic pain was well established prior to the initiation of drug delivery.
XT-203 CCI SC: Rats (10/group) were subjected to CCI neuropathic pain model surgery. After the pain state was established, they were dosed 3× per day for 5 days with XT-203 or a positive control (gabapentin) dose. Behavior testing for pain responses by von Frey testing was used to establish pain thresholds in the affected hind paw. Because dosage was 3×/day, behavior testing was performed after the first and second dose of day 1 dosing (1.1, 1.2) and after the first and second dose of day 5 dosing (5.1, 5.2). […]
Von Frey Test for Mechanical Allodynia: Rats received at least three 60 min habituations to the test environment prior to behavioral testing. Response thresholds to calibrated light pressure stimuli applied to the plantar surface of the paws was measured using the von Frey test. […] Briefly, rats were first assessed for baseline response thresholds (average of three consecutive withdrawal assessments) from each paw at 15 min intervals, and the average response threshold from both feet was calculated. […] Allodynia was assessed pre- and post-drug delivery.

[2] = test system: bone fracture pain, paw withdrawal threshold; test: Mouse bone fracture model, intraperitoneal; format: in vivo; conditions: for effect on PWT in mouse fracture pain model: IP, morphine 1, 2, 3, 5 mg/kg, XT-203 6, 10, 18, 30 mg/kg, (+)-NTX 6, 18, 30, 60 mg/kg, dose-dependent; for adverse effects during observation: mouse fracture model, all dose groups
Text: Each group had n=10 mice.

[3] = test system: surgical pain (paw incision), paw withdrawal threshold; test: Mouse paw incision model, morphine potentiation
Description: Manual testing with von Frey hairs was performed at the times indicated in the graphs. The animals were placed in individual Perspex boxes on a raised metal mesh for at least 40 min before the test. A series of graduated von Frey hairs (0.07, 0.16, 0.4, 0.6, and 1.0 g) were applied to the plantar surface of the left paw, in sequence. Each von Frey hair was applied 10 times on a one-sec-on-one-sec-off protocol, with each hair slightly bent. A paw withdrawal upon this hind-paw stimulation for a given von Frey hair registering 5 responses out of 10 trials was recorded the paw withdrawal threshold (PWT). A baseline PWT was determined each day for 3 days before surgery. […] In addition, the PWT was determined before dosing and 1, 2, and 4 hours after dosing.
In both cases, morphine was dosed at 1 mg/kg IP.

hERG = hERG (Homo sapiens, UniProt Q12809); test: hERG inhibition
Sequence of hERG (Q12809 whole entry): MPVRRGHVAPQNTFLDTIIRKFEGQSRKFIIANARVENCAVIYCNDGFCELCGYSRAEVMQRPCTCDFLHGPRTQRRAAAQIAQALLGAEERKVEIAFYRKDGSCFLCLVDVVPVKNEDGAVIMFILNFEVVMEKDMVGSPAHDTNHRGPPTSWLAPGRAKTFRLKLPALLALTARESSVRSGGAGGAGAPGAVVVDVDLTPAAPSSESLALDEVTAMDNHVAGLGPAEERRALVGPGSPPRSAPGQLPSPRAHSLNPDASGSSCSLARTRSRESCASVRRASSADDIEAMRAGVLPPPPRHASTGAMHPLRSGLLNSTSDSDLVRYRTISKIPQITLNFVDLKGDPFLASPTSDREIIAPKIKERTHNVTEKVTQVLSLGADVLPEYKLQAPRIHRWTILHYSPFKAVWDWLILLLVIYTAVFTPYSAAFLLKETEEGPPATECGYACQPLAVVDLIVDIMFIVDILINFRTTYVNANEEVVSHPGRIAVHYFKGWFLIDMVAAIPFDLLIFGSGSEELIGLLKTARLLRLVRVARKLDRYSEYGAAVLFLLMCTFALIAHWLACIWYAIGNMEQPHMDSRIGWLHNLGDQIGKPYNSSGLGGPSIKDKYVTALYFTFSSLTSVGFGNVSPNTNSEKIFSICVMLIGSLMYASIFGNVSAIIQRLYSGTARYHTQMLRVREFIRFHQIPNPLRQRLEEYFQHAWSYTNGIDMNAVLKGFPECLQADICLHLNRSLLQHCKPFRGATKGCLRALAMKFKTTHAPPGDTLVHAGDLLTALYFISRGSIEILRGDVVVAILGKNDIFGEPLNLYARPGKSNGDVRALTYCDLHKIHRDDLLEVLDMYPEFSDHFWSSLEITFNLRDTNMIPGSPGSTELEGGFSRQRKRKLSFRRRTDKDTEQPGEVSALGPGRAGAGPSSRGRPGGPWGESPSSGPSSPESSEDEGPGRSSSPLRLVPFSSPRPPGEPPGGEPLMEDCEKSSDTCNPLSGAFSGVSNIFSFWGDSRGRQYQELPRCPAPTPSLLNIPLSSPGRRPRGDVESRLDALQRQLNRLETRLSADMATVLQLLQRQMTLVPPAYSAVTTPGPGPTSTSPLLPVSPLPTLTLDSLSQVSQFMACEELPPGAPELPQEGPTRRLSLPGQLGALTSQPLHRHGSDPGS

Adrenergic α2A = biological target: T1, Adrenergic α2A (Homo sapiens, UniProt P08913); test: Off-target screening; format: binding
T1 sequence (P08913 1-465): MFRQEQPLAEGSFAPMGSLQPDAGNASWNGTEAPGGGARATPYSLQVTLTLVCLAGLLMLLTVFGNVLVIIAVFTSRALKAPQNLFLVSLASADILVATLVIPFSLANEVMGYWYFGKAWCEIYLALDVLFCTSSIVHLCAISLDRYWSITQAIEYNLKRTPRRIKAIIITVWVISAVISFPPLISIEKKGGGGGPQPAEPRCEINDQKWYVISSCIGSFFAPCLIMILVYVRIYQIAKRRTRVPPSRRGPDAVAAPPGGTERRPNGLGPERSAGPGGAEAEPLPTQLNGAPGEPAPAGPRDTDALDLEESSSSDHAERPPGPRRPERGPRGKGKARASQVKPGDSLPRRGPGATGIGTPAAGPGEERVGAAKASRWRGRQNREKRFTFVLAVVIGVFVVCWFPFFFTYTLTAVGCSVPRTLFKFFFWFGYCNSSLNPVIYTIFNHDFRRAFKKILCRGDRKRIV
Text: (§1) In addition to the animal studies presented above in Examples 1-9, the results of in vitro testing of several of the compounds (i.e., XT-203, XT-204, and XT-206 through XT-217) are shown in Table 5 and Table 6. […]. Nine additional compounds had two or fewer off-target hits in the screening. […] These compounds spanned all of the tested N-modification classes. […]. Thus, the medicinal chemistry approach taken in this series of fluorinated compounds can yield low off-target activity and longer metabolic lifetime while preserving TLR4 antagonism. It is appreciated that further development of compounds in this class, using techniques known to those skilled in the art, may yield additional compounds with desirable pharmacologic and toxicologic characteristics.

Sodium channel site 2 = test: Off-target screening; format: binding
Text: as §1

[4] = Hepatocyte elimination of parent compound, spread across species; format: in vitro ADME; conditions: mouse, rat, dog, monkey, human, hepatocytes; lowest to highest species value; read-out: range of hepatocyte elimination half-life values across species
Description: Hepatocyte Elimination: (+)-NTX, AK-17 and XT-203 were incubated with cultured hepatocytes from the species listed in FIG. 9 and Table 4, and samples of the culture supernatant were collected over time. Samples were concentrated by nitrogen drying followed by reconstitution with 40% methanol for LC/MS analysis The data points were analyzed using the WinNonLin pharmacokinetics software package, and a half-life was determined that describes the rate of parent elimination. […].
as §1

in vitro [5] = conditions: dog, cultured hepatocytes
in vitro [6] = conditions: human, cultured hepatocytes
[7] = test system: acute nociceptive pain (paw incision); test: Rat paw incision model, subcutaneous (Study R049); conditions: 30 mg/kg SC TID, five days; morphine 3 mg/kg as positive control

With `O=C1CC[C@]2(O)[C@@H]3Cc4ccc(O)c5c4[C@]2(CCN3CC2CC2)[C@@H]1O5` [(+)-naltrexone, reference compound] the “effect on pain threshold (von Frey), data not shown” value ([1]; SC) was “not effective”, the “effect on PWT in mouse fracture pain model” value [2] was “increased the PWT” and the “adverse effects during observation” value [2] was “No significant adverse effects”. The “PWT of the ipsilateral hind-paw, 2 hours post-dosing” value ([3]; (+)-NTX 18 mg/kg IP alone) was 0.22 ± 0.050 g, the “PWT of the ipsilateral hind-paw, 4 hours post-dosing” value ([3]; (+)-NTX 18 mg/kg IP alone) was 0.14 ± 0.32 g and the “PWT of the ipsilateral hind-paw, 1 hour post-dosing” value ([3]; (+)-NTX 18 mg/kg IP alone, baseline 0.11±0.015 g) was 0.31 ± 0.056 g.
For `COc1ccc2c3c1O[C@@H]1C(F)CCC4[C@H](C2)N(CC2CC2)CC[C@]341` (some centres unmarked) [XT-203], the IC50 (hERG) was > 100 µM, the “% Inhibition at 10 μM, Adrenergic α2A” value (Adrenergic α2A) was 99% and the “% Inhibition at 10 μM, Adrenergic α2A” value (Adrenergic α2A; listed as XT 203, 10 µM) was 64%. The inhibition at 1 µM (Adrenergic α2A; read-out: % inhibition at 1 μM (retest), Adrenergic α2A, 1 μM) was < 50%, the “% Inhibition at 10 μM, Sodium channel site 2” value (Sodium channel site 2; 10 µM) was 64% and the “% Inhibition at 10 μM, Sodium channel site 2” value (Sodium channel site 2; listed as XT 203, 10 µM) was 54%. The “effect on pain threshold (von Frey), day 1 dosing” value ([1]; XT-203 19 mg/kg SC 3x per day, FIG. 5A) was “minimal effect”, the “effect on pain threshold (von Frey), day 5 testing” value ([1]; XT-203 19 mg/kg SC 3x per day, FIG. 5B) was “substantial effect” and the “effect on PWT in mouse fracture pain model” value [2] was “increased the PWT”. The “adverse effects during observation” value [2] was “No significant adverse effects”, the half-life [4] was 13.2 to 54.3 min and the half-life (in vitro [5]) was 24.3 min. For the same compound, the half-life (in vitro [6]) was 54.3 min, the “PWT, 2 hours after dosing” value ([3]; XT-203 10 mg/kg IP alone) was 0.25 ± 0.059 g and the “PWT, 4 hours after dosing” value ([3]; XT-203 10 mg/kg IP alone) was 0.09 ± 0.012 g. For the same compound, the “PWT, 1 hour after dosing” value ([3]; XT-203 10 mg/kg IP alone, 0.11±0.015 g before dosing) was 0.32 ± 0.058 g and the “efficacy in rat paw incision model at the high dose” value [7] was “significant efficacy”.
